Data taken from ChEMBL document CHEMBL1201862, “PubChem BioAssay data set” (2004).
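Five compound concentrations were applied to cells in 96-well plates for 48 hours; endpoints were derived by simple linear interpolation of the resulting dose-response curve. GI50 is the concentration that inhibits growth by half.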 The source made the active and inactive calls. Cut-off read from the data, not from the text of the source: active = GI50 up to about 1.1 µM and inactive = higher.

Columns and labels:
Experiment in all cases: DTP human tumour cell line panel, 48 h
A498 = test system: A498
HCT-15 = test system: HCT-15
K562 = test system: K562
MCF7 = test system: MCF7
NCI-H23 = test system: NCI-H23
OVCAR-3 = test system: OVCAR-3
RXF 393 = test system: RXF 393
SF-268 = test system: SF-268
SF-539 = test system: SF-539
SK-MEL-28 = test system: SK-MEL-28
SK-MEL-2 = test system: SK-MEL-2
SN12C = test system: SN12C
TK-10 = test system: TK-10
CCRF-CEM = test system: CCRF-CEM
HOP-92 = test system: HOP-92
HT-29 = test system: HT-29
NCI-H460 = test system: NCI-H460
SF-295 = test system: SF-295
SNB-75 = test system: SNB-75
Hs-578T = test system: Hs-578T

Structure (SMILES)	GI50 (A498)	GI50 (HCT-15) [µM]	GI50 (K562)	GI50 (MCF7)	GI50 (NCI-H23)	GI50 (OVCAR-3)	GI50 (RXF 393)	GI50 (SF-268)	GI50 (SF-539)	GI50 (SK-MEL-28)	GI50 (SK-MEL-2)	GI50 (SN12C)	GI50 (TK-10)	GI50 (CCRF-CEM)	GI50 (HOP-92)	GI50 (HT-29)	GI50 (NCI-H460)	GI50 (SF-295)	GI50 (SNB-75)	GI50 (Hs-578T)
N#CC1=C(Nc2ccccc2)SC=C(c2ccccc2)N=C1NCc1ccccc1	> 100 µM (inactive)	> 100	24.9 µM (inactive)	> 100 µM (inactive)	> 100 µM (inactive)	> 100 µM (inactive)	> 100 µM (inactive)	> 100 µM (inactive)	> 100 µM (inactive)	> 100 µM (inactive)	> 100 µM (inactive)	> 100 µM (inactive)	> 100 µM (inactive)	–	–	–	–	–	–	–
N#C[BH2-][n+]1cn(C2CC(O)C(COP(=O)(O)OC3CC(n4ccc(N)nc4=O)OC3CO)O2)c2nc(N)[nH]c(=O)c21 (stereo not drawn)	> 100 µM (inactive)	> 100	10 µM (inactive)	> 100 µM (inactive)	> 100 µM (inactive)	> 100 µM (inactive)	> 100 µM (inactive)	> 100 µM (inactive)	> 100 µM (inactive)	–	> 100 µM (inactive)	> 100 µM (inactive)	–	> 100 µM (inactive)	> 100 µM (inactive)	> 100 µM (inactive)	> 100 µM (inactive)	> 100 µM (inactive)	> 100 µM (inactive)	–
COc1cc(OC)cc(C(=O)Cc2c(C(=O)c3ccccc3)c3ccccc3n2C(=O)c2ccccc2)c1	13.2 µM (inactive)	31.3	16.7 µM (inactive)	–	14.4 µM (inactive)	21.3 µM (inactive)	43.6 µM (inactive)	65.3 µM (inactive)	30.2 µM (inactive)	34.4 µM (inactive)	20.5 µM (inactive)	43.8 µM (inactive)	38.5 µM (inactive)	16 µM (inactive)	3.78 µM (inactive)	22.9 µM (inactive)	15.5 µM (inactive)	19.5 µM (inactive)	7.46 µM (inactive)	–
COc1cc2c3c(c1OC)-c1c(ccc4c1OCO4)CC3(C#N)N(C(=O)c1ccccc1)CC2 (stereo not drawn)	> 100 µM (inactive)	39.7	54.6 µM (inactive)	–	52.8 µM (inactive)	45.3 µM (inactive)	36.1 µM (inactive)	43.2 µM (inactive)	28.1 µM (inactive)	–	–	51.2 µM (inactive)	> 100 µM (inactive)	51.3 µM (inactive)	26.4 µM (inactive)	> 100 µM (inactive)	98.9 µM (inactive)	41.4 µM (inactive)	21.2 µM (inactive)	–
COc1ccc(CCCN2c3ccccc3Sc3ccccc32)cc1	> 100 µM (inactive)	27.9	17.3 µM (inactive)	–	> 100 µM (inactive)	–	> 100 µM (inactive)	> 100 µM (inactive)	> 100 µM (inactive)	> 100 µM (inactive)	> 100 µM (inactive)	> 100 µM (inactive)	> 100 µM (inactive)	51.2 µM (inactive)	> 100 µM (inactive)	54.1 µM (inactive)	99.5 µM (inactive)	> 100 µM (inactive)	> 100 µM (inactive)	–
Cc1ccc(S(=O)(=O)n2cc(/C=C/C#N)c(-c3cn(S(=O)(=O)c4ccc(C)cc4)cc3-c3cn(S(=O)(=O)c4ccc(C)cc4)cc3/C=C/C#N)c2)cc1	> 100 µM (inactive)	> 100	57.4 µM (inactive)	–	87.7 µM (inactive)	> 100 µM (inactive)	–	> 100 µM (inactive)	–	–	> 100 µM (inactive)	> 100 µM (inactive)	40.4 µM (inactive)	–	43.6 µM (inactive)	> 100 µM (inactive)	–	44.8 µM (inactive)	> 100 µM (inactive)	90.2 µM (inactive)
C1CCN(c2nsc(N3CCCCC3)n2)CC1	> 100 µM (inactive)	> 100	> 100 µM (inactive)	–	> 100 µM (inactive)	–	> 100 µM (inactive)	> 100 µM (inactive)	> 100 µM (inactive)	> 100 µM (inactive)	> 100 µM (inactive)	> 100 µM (inactive)	> 100 µM (inactive)	> 100 µM (inactive)	97.1 µM (inactive)	> 100 µM (inactive)	> 100 µM (inactive)	> 100 µM (inactive)	> 100 µM (inactive)	–
Nc1ccn(C2OC(COP(=O)(O)OCC3OC(n4cc(F)c(=O)[nH]c4=O)CC3O)C(O)C2O)c(=O)n1 (stereo not drawn)	0.225 µM (active)	5.75	> 100 µM (inactive)	–	0.314 µM (active)	> 100 µM (inactive)	> 56.8 µM (inactive)	< 0.01 µM (active)	< 0.0439 µM (active)	> 25.5 µM (inactive)	> 100 µM (inactive)	3.05 µM (inactive)	–	0.0161 µM (active)	38 µM (inactive)	4.3 µM (inactive)	< 0.01 µM (active)	0.0453 µM (active)	> 48.3 µM (inactive)	> 100 µM (inactive)
C[N+]1=c2c3cccc4cccc(c(=O)n2CC1)c43	15.1 µM (inactive)	22	19 µM (inactive)	–	17.6 µM (inactive)	25.7 µM (inactive)	11.4 µM (inactive)	12.3 µM (inactive)	14.6 µM (inactive)	15.8 µM (inactive)	19.6 µM (inactive)	18.1 µM (inactive)	5.82 µM (inactive)	11.6 µM (inactive)	24.7 µM (inactive)	16.8 µM (inactive)	11.5 µM (inactive)	21.3 µM (inactive)	21.8 µM (inactive)	–
